The source of these data is publication doi:10.1101/504357v1 (biorxiv, 2018).

Experiment [1] deals with S. pyogenes. Put plainly: microbe, parasite or virus in culture. More on the design: species or system Streptococcus pyogenes ATCC 19615. As to conditions: Streptococcus pyogenes, read-out: MIC (ug/mL).
Experiment [2] concerns the target T1, HuDHFR (Homo sapiens, UniProt P00374).
T1 sequence (P00374 1-187): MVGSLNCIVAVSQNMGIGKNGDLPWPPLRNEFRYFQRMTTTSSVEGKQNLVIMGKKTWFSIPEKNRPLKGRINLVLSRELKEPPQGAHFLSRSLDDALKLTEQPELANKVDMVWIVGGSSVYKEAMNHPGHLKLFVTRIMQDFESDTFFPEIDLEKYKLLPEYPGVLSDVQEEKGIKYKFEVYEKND
Put plainly: DHFR inhibition assay. It counts as biochemical.

Values after ≈ are worked out from the molar mass of the structure shown.

With `CCc1nc(N)nc(N)c1C#CC(C)c1cc(-c2cc(C)nc(C)c2)ccc1Cl` (racemic) [compound 10], the MIC in experiment [1] came out at 0.312 µg/mL (≈ 0.769 µM).
Turning to `CCc1nc(N)nc(N)c1C#CCc1cc(OC)cc(-c2ccc(C(=O)O)cc2)c1` [compound 1], the MIC in experiment [1] was not above 0.039 µg/mL.
In the case of `CCc1nc(N)nc(N)c1C#C[C@@H](C)c1cc(OC)cc(-c2ccc(C(=O)O)cc2)c1` [compound 2], the MIC in experiment [1] was not above 0.039 µg/mL.
On to `CCc1nc(N)nc(N)c1C#C[C@H](C)c1cc(OC)cc(-c2ccc(C(=O)O)cc2)c1` [compound 3], for which the MIC in experiment [1] was not above 0.039 µg/mL.
In the case of `CCc1nc(N)nc(N)c1C#C[C@H](C)c1cc(-c2ccc(C(=O)O)cc2)ccc1OC` [compound 4], the MIC in experiment [1] is 0.078 µg/mL (≈ 0.187 µM).
Same read-out and setting: with `CCc1nc(N)nc(N)c1C#C[C@@H](C)c1cc(-c2ccc(C(=O)O)cc2)ccc1OC` [compound 5] the figure was 0.078 µg/mL (≈ 0.187 µM); with `CCc1nc(N)nc(N)c1C#CCc1cc(-c2ccccc2C(=O)O)ccc1OC` [compound 6], 0.625 µg/mL (≈ 1.55 µM).
In the case of `CCc1nc(N)nc(N)c1C#CCc1cc(-c2ccc(C(=O)O)cc2)ccc1OC` [compound 7], in experiment [1], the MIC came out at 0.078 µg/mL (≈ 0.194 µM).
Broadly, the IC50 is the concentration needed to halve the response being measured. Low values mean inhibition by little substance, high ones a need for much substance. Turning to `CCc1nc(N)nc(N)c1C#C[C@H](C)c1cc(-c2cc(C)nc(C)c2)ccc1Cl` [compound 9], in experiment [1], the MIC was not above 0.039 µg/mL. Also, inhibition in experiment [2] was half-maximal at 210 ± 18 nM (IC50).
Consider `CCc1nc(N)nc(N)c1C#C[C@@H](C)c1cc(-c2cc(C)nc(C)c2)ccc1Cl` [compound 11], for which the MIC in experiment [1] was found to be 0.625 µg/mL (≈ 1.54 µM). Moreover, the IC50 in experiment [2] turned out to be 207 ± 13 nM.
For `CCc1nc(N)nc(N)c1C#C[C@H](C)c1cc(-c2cc(C)nc(C)c2)ccc1OC(F)(F)F` [compound 12], in experiment [1], the MIC came to 0.312 µg/mL (≈ 0.685 µM).
As for `CCc1nc(N)nc(N)c1C#C[C@@H](C)c1cc(-c2cc(C)nc(C)c2)ccc1OC(F)(F)F` [compound 13], in experiment [1], the MIC was 0.156 µg/mL (≈ 0.342 µM). The compound also yielded an IC50 in experiment [2] of 167 ± 9 nM.
Regarding `CCc1nc(N)nc(N)c1C#CCc1cc(-c2cc(C)nc(C)c2)ccc1OC(F)(F)F` [compound 14], the MIC in experiment [1] amounted to 0.625 µg/mL (≈ 1.42 µM).
Still for that read-out and setting: with `CCc1nc(N)nc(N)c1C#CC(C)c1cc(-c2cc(C)nc(C)c2)ccc1OC(F)(F)F` (stereo not drawn) [compound 15] the figure was 0.312 µg/mL (≈ 0.685 µM); with `CCc1nc(N)nc(N)c1C#CC(C)c1cc(F)cc(-c2cc(C)nc(C)c2)c1` (stereo not drawn) [compound 16], not above 0.039 µg/mL.
For the compound `CCc1nc(N)nc(N)c1C#CC(C)c1cc(-c2ccncc2)cc(F)c1OC` (stereo not drawn) [compound 17], the MIC in experiment [1] was not above 0.039 µg/mL. Moreover, in experiment [2], it took 234 ± 16 nM to reach half-maximal inhibition (IC50).
As to `CCc1nc(N)nc(N)c1C#CC(C)c1cccc(-c2cc(C)nc(C)c2)c1` (stereo not drawn) [compound 18], the MIC in experiment [1] was not above 0.039 µg/mL.
Regarding `CCc1nc(N)nc(N)c1C#CC(C)c1cc2c(c(-c3cc(C)nc(C)c3)c1)OCCO2` (stereo not drawn) [compound 19], in experiment [1], the MIC is not above 0.039 µg/mL.
Same read-out and setting: in the case of `CCc1nc(N)nc(N)c1C#CC(C)c1cc2c(c(-c3ccncc3)c1)OCCO2` (stereo not drawn) [compound 20] it was not above 0.039 µg/mL.
For the compound `CCc1nc(N)nc(N)c1C#C[C@@H](C)c1cc2c(c(-c3ccncc3)c1)OCO2` [compound 21], in experiment [1], the MIC is not above 0.039 µg/mL. Besides, in experiment [2], the IC50 is 191 ± 12 nM.
For `CCc1nc(N)nc(N)c1C#C[C@H](C)c1cc2c(c(-c3ccncc3)c1)OCO2` [compound 22], in that order: not above 0.039 µg/mL and 85 ± 10 nM.
For `CCc1nc(N)nc(N)c1C#C[C@@H](C)c1ccc(OC)c(-c2ccncc2)c1` [compound 23], in that order: not above 0.039 µg/mL and 68 ± 7 nM.
For the compound `CCc1nc(N)nc(N)c1C#C[C@H](C)c1ccc(OC)c(-c2ccncc2)c1` [compound 24], the MIC in experiment [1] was not above 0.039 µg/mL. In experiment [2], this compound gave an IC50 of 74 ± 7 nM.
Consider `CCc1nc(N)nc(N)c1C#C[C@H](C)c1cc(-c2ccncc2)ccc1OC` [compound 25], for which the MIC in experiment [1] was not above 0.039 µg/mL.
Take `CCc1nc(N)nc(N)c1C#C[C@@H](C)c1cc(-c2ccncc2)ccc1OC` [compound 26]: the MIC in experiment [1] is not above 0.039 µg/mL.
The same measure, in the same setting: in the case of `CCc1nc(N)nc(N)c1C#C[C@@H](C)c1cc(OC)cc(-c2ccncc2)c1` [compound 27] it was not above 0.039 µg/mL.
For the compound `CCc1nc(N)nc(N)c1C#C[C@H](C)c1cc(OC)cc(-c2ccncc2)c1` [compound 28], the MIC in experiment [1] was not above 0.039 µg/mL.
For `CCc1nc(N)nc(N)c1C#CC(C)c1cc(OC)c(OC)c(-c2ccncc2)c1` (stereo not drawn) [compound 29], the MIC in experiment [1] is not above 0.039 µg/mL.
Consider `CCc1nc(N)nc(N)c1C#C[C@H](C)c1cc(OC)c(OC)c(-c2ccncc2)c1` [compound 30], for which the MIC in experiment [1] is not above 0.039 µg/mL.
With `CCc1nc(N)nc(N)c1C#CC(C)c1cc(-c2ccncc2)cc2c1OCO2` (stereo not drawn) [compound 31], the MIC in experiment [1] was not above 0.039 µg/mL.
For `CCc1nc(N)nc(N)c1C#CC(C)c1cc(O)c(O)c(-c2ccncc2)c1` (stereo not drawn) [compound 32], in experiment [1], the MIC amounted to 0.312 µg/mL (≈ 0.831 µM).
